Results as given in patent US20030055244A1, “Pyridyl-containing spirocyclic compounds as inhibitors of fibrinogen-dependent platelet aggregation” (priority 1999, published 2003).
Like-named read-outs stand apart in the source and are kept apart here.

How the values were obtained:
GPIIb-IIIa = target: T1, GPIIb-IIIa (Homo sapiens, UniProt P05106+P08514); assay: ELISA IIb-IIIa assay (fibrinogen binding to immobilized purified GPIIb-IIIa); details: inhibition of fibrinogen binding to purified GPIIb-IIIa
T1 construct: Purified platelet GPIIb-IIIa receptor was prepared as described by Fitzgerald; from tissue; host or cells: platelets
T1 sequence (P08514 32-887 limits assumed): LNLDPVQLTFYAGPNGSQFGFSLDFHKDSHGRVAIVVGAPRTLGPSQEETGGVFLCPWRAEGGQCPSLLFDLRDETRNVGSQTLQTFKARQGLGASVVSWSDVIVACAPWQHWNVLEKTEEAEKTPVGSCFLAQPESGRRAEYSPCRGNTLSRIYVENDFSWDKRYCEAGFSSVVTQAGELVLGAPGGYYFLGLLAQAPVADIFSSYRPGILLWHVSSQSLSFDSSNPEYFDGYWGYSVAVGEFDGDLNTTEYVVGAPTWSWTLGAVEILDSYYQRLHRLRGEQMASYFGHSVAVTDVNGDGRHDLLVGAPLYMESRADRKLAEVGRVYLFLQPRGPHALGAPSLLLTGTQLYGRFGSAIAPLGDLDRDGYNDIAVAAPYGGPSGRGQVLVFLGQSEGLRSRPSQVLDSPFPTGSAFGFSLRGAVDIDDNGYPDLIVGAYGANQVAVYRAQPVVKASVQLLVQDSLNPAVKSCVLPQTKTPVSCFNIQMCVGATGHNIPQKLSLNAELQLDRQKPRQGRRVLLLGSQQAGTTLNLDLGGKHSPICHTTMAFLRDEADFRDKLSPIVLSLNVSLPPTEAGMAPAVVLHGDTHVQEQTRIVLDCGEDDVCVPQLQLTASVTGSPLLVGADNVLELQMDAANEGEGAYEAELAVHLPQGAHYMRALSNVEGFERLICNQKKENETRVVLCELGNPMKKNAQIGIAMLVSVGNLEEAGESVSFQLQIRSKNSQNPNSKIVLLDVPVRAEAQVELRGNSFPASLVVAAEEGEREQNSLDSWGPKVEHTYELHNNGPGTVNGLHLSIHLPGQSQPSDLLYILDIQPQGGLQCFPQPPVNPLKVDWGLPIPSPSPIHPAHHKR
T1 sequence (P08514 891-1039 limits assumed): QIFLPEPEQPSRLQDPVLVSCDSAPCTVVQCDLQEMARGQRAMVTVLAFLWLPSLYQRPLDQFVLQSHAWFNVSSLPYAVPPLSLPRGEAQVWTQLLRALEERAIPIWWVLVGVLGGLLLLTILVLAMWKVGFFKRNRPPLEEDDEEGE
T1 sequence (P05106 27-788): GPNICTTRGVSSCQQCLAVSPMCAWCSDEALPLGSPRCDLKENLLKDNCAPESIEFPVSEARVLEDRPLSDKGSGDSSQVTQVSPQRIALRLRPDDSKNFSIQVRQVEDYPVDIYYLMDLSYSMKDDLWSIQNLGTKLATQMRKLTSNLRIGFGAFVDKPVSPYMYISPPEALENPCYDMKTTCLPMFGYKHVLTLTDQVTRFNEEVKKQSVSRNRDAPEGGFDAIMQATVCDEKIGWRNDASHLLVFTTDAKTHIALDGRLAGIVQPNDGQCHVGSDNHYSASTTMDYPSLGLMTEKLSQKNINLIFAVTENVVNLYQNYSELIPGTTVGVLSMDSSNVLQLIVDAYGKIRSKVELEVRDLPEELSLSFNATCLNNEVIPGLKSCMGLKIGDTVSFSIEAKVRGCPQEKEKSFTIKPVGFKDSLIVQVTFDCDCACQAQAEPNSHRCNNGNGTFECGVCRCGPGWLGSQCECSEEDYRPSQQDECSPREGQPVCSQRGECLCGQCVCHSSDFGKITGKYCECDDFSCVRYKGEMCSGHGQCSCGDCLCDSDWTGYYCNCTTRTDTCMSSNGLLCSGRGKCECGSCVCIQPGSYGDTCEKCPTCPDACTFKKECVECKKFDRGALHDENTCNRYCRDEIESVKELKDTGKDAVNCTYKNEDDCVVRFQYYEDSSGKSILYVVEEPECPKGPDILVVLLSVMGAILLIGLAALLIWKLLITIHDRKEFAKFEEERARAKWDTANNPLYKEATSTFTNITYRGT
Description: No. 1 - The ELISA IIb-IIIa Assay
PIIb-IIIa is coated onto microtiter plates. The coated support is then contacted with fibrinogen and with the test material (e.g., compounds of Formula I) and incubated for a sufficient time to permit maximal binding of fibrinogen to the immobilized GPIIb- Ila. Fibrinogen is typically provided at a concentration of about 5-50 nM and the test material can, if desired, be added at a series of dilution. Typical incubations are 2 to 4 hours at 25° C., the time and temperature being interdependent.
After incubation, the solution containing the fibrinogen and test material is removed and the level of binding of fibrinogen measured by quantitating bound fibrinogen to GPIIb-IIIa. Any suitable means of detection may be used, but it is convenient to employ labeled fibrinogen, for example using biotinylated labels. Such methods are well known in the art.
A. Description of Assays—Plate Assays
After purification, the receptors were stored in 0.1% Triton X-100 at 0.1-1.0 mg/ml.
The receptors were coated to the wells of 96-well flat-bottom ELISA plates (Linbro EIA-Plus microtiter plate, Flow Laboratories) after diluting 1:200 with a solution of 20 mM Tris-HCl, 150 mM NaCl, 1 mM CaCl2, pH 7.4, to reduce the Triton X-100 concentration to below its critical micellar concentration and adding an aliquot of 100 ul to each well. The wells were all allowed to incubate overnight at 4° C., and then aspirated to dryness. Additional sites were blocked by the addition of bovine serum albumin (BSA) at 35 mg/ml in the above buffer for two hours at 30° C. to prevent nonspecific binding. The wells were then washed once with binding buffer ([…] Tris-HCl, 100 mM NaCl 2 mM CaCl2, 1 mg/ml BSA).
The corresponding ligands (fibrinogen, von Willebrand Factor, or vitronectin) were conjugated to biotin using commercially available reagents and standard protocols. The labeled ligands were added to the receptor-coated wells at final concentration of 10 nM (100 ul/well) and incubated for 3 hours at 25° C. in the presence or absence of the test samples. After incubation, the wells are aspirated to dryness and bound ligand is quantitated.
Decreased color development is observed in wells incubated with test samples which inhibit binding of ligand to receptor.

[1] = tested on: human platelet-rich plasma; assay: Platelet aggregation assay (Aggregation-Human PRP/ADP); format: cell-based
Description: Platelet-rich plasma was prepared from healthy human volunteers for use in determining inhibition of platelet aggregation by the compounds.
Platelet-rich plasma was prepared at room temperature by centrifugation of the citrated whole blood at 100 × g for twelve minutes. The platelet rich plasma contained approximately 200-400,000 platelets/μl.
Platelet aggregation was assayed in a 4-channel platelet aggregation profiler (PAP-4, Biodata, Hatboro, Pa.) according to the manufacturers directions. Inhibition of platelet aggregation was studied by adding varying amounts of adenosine diphosphate (ADP) to stirred human platelet-rich plasma. Specifically, the human platelet-rich plasma was incubated with the compound being tested for 1 minute at 37° C. prior to the addition of a variety of aggregating agents most often ADP 5 μM to 20 μM, but also 1 μg/ml collagen, 1 μM U46619 and 0.3 μM platelet activating factor.

[2] = tested on: human platelet-rich plasma; assay: as above; format: cell-based; remark: listed apart in the source
[3] = read-out: PRP (ADP-Citrate) IC50

Compound	IC50 (GPIIb-IIIa) [nM]	IC50 [1, 3] [nM]	IC50 ([2]; read-out: PRP (ADP-PPACK) IC50) [nM]	IC50 ([1]; read-out: PRP (ADP) IC50) [nM]	IC50 ([2]; read-out: PRP (PPACK) IC50) [nM]	IC50 ([1]; read-out: PRP IC50) [nM]
Cc1ccc(S(=O)(=O)N[C@@H](CNC(=O)C2CCC3(CC2)CCN(c2ccncc2)CC3)C(=O)O)cc1 [Example 14, (2S)-2-{[(4-methylphenyl)sulfonyl]amino}-3-({[3-(4-pyridyl)-3-azaspiro [5.5]undec-9-yl]carbonyl}amino)propanoic acid]	1	98	169			
Cc1noc(C)c1S(=O)(=O)N[C@@H](CNC(=O)C1CCC2(CC1)CCN(c1ccncc1)CC2)C(=O)O [Example 13, (2S)-2-{[(3,5-dimethyl-4-isoxazolyl)sulfonyl]amino}-3-({[3-(4-pyridyl)-3-azaspiro [5.5]undec-9-yl]carbonyl}amino)propanoic acid]	1	44	68			
CCCCS(=O)(=O)N[C@@H](CNC(=O)C1CCC2(CC1)CCN(c1ccncc1)CC2)C(=O)O [Example 15]	10			168	686	
O=C(O)CC(=O)N1CCN(C(=O)N2CCC3(CC2)CCN(c2ccncc2)C3)CC1 [Example 31, 3-oxo-3-(4-{[-(4-pyridyl)-2,8-diazaspiro[4.5]dec-8-yl]carbonyl}piperazino) propanoic acid]		660	3600			
O=C(O)COCC1CCN(C(=O)N2CCC3(CC2)CCN(c2ccncc2)C3)CC1 [Example 45, 2-[(1-{[2-(4-pyridyl)-2,8-diazaspiro[4.5]dec-8-yl]carbonyl}-4-piperidyl)-methoxy]acetic acid]	106					2820
O=C(O)CCCC(=O)N1CCC2(CC1)CCN(c1ccncc1)CC2 [Example 1, 5-oxo-5-(9-(4-pyridyl)-3,9-diazaspiro[5.5]undec-3-yl)pentanoic acid]	238					5100
Cc1noc(C)c1S(=O)(=O)N[C@@H](CCC(=O)N1CCC2(CC1)CCN(c1ccncc1)CC2)C(=O)O [Example 8, 2(S)-2-{[(3,5-dimethyl-4-isoxazolyl)sulfonyl]amino}-5-oxo-5-[9-(4-pyridyl)-3,9-diazaspiro [5.5]undec-3-yl]pentanoic acid]	2					21
O=C(O)CC(=O)N1CCCN(C(=O)N2CCC3(CC2)CCN(c2ccncc2)C3)CC1 [Example 43, 3-oxo-3-(4-{[2-(4-pyridyl)-2,8-diazaspiro[4.5]dec-8-yl]carbonyl}-1,4-diazepan-1-yl) propanoic acid]	25					697
O=C(O)CCCCCC(=O)N1CCC2(CC1)CCN(c1ccncc1)CC2 [Example 3, 7-oxo-7-(9-(4-pyridyl)-3,9-diazaspiro[5.5]undec-3-yl)heptanoic acid]	265					4500
O=C(N[C@@H](CCC(=O)N1CCC2(CCN(c3ccncc3)CC2)C1)C(=O)O)OCc1ccccc1 [Example 20, (2S)-2-{[(benzyloxy)carbonyl]amino}-5-oxo-5-[8-(4-pyridyl)-2,8-diazaspiro [4.5]dec-2-yl]pentanoic acid]	12	9100				
O=C(O)CCCCCCC(=O)N1CCC2(CC1)CCN(c1ccncc1)CC2 [Example 4, 8-oxo-8-(9-(4-pyridyl)-3,9-diazaspiro[5.5]undec-3-yl)octanoic acid]	1160					18000
Cc1noc(C)c1S(=O)(=O)N[C@@H](CCC(=O)N1CCC2(CC1)CCN(c1ccncc1)C2)C(=O)O [Example 34, (2S)-2-{[(3,5-dimethyl-4-isoxazolyl)sulfonyl]amino}-5-oxo-5-[2-(4-pyridyl)-2,8-diazaspiro [4.5]dec-8-yl]pentanoic acid]	2	271				
O=C(O)COC1CCN(C(=O)N2CCC3(CC2)CCN(c2ccncc2)CC3)CC1 [Example 11, 2-[(1 -{[9-(4-pyridyl)-3,9-diazaspiro[5.5]undec-3-yl]carbonyl}-4-piperidyl)oxy]acetic acid]	129					2650
O=C(O)CC(=O)NC1CCN(C(=O)N2CCC3(CC2)CCN(c2ccncc2)C3)C1 (stereo not shown) [Example 47, 3-oxo-3-[(1-{[2-(4-pyridyl)-2,8-diazaspiro[4.5]dec-8-yl]carbonyl}-tetrahydro-1H-3-pyrrolyl)amino]propanoic acid]	447					5860
CCCCOC(=O)N[C@@H](CCC(=O)N1CCC2(CCN(c3ccncc3)CC2)C1)C(=O)O [Example 21, (2S)-2-[(butoxycarbonyl)amino]-5-oxo-5-[8-(4-pyridyl)-2,8-diazaspiro [4.5]dec-2-yl]pentanoic acid]	162	5700				
O=C(O)Cn1ccc2cc(C(=O)N3CCC4(CC3)CCN(c3ccncc3)C4)ccc21 [Example 53, 2-(5-{[2(4-pyridyl)-2,8-diazaspiro[4,5]dec-8-yl]carbonyl}-1H-1-indolyl) acetic acid]	47	952				
O=C(O)COC1CCN(C(=O)N2CCC3(CCN(c4ccncc4)CC3)C2)CC1 [Example 26, 2-((1-((8-(4-pyridyl)-2,8-diazaspiro[4.5]dec-2-yl)carbonyl)-4-piperidyl)oxy)acetic acid]	457	1000				
